# In patent US9932338B2, “Compounds having muscarinic receptor antagonist and BETA2 adrenergic receptor agonist activity” (CHIESI FARMACEUTICI S.P.A., priority 2015, dated 2018):
# Tests used:
# Human β2 adrenoceptor = target: T1, Human β2 adrenoceptor (Homo sapiens, UniProt P07550); assay: β2 adrenoceptor radioligand binding assay; conditions: human β2 adrenoceptor membranes, 125-I cyanopindolol; Ki from IC50 by Cheng and Prusoff; read-out: B2 binding affinity (Ki class)
# T1 construct: purchased Perkin Elmer
# T1 sequence (P07550 whole entry): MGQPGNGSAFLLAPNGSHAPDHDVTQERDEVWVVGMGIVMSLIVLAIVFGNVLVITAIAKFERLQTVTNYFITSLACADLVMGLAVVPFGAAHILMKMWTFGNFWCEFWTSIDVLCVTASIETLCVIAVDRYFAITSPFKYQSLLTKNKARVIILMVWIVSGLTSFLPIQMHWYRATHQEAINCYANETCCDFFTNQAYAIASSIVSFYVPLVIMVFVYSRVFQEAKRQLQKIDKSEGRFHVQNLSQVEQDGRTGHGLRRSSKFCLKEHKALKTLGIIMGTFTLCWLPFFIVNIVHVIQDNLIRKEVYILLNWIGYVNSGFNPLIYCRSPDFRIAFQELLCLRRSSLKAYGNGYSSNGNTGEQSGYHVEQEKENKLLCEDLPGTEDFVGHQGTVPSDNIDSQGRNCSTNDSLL
# Description: Example. β2 Adrenoceptor Radioligand Binding Assay
# Human β2 adrenoceptor membranes (7.5 ug/well) from Perkin Elmer were incubated with 0.3 nM 125-I Cyanopindolol with or without test compounds, or a saturating concentration of s-propranolol (2 μM) for the determination of non-specific binding. The assay was carried out in 96-well polypropylene plates in a volume of 200 ul. The assay buffer used was 25 mM HEPES, 0.5% BSA (w/v), 1 mM EDTA, 0.02% ascorbic acid (v/v), (pH 7.4). The final assay concentration of DMSO was 0.5% (v/v). The plates were sealed and incubated for 1 hour at room temperature on an orbital shaker (slow speed). Membranes were harvested onto 96-well unifilter GF/C filter plates pre-treated with 0.5% polyethyleneimine (v/v), using a filter manifold, washed six times with 200 μl of wash buffer containing 10 mM HEPES and 500 mM NaCl. The plates were dried before addition of 50 μl of microscint-0, sealed then read in a Trilux Microbeta scintillation counter. IC50 values are determined from competition curves using a non-linear curve fitting program. Ki values were calculated from IC50 values by the Cheng and Prusoff equation.
# Human M3 receptor = target: T2, Human M3 receptor (Homo sapiens, UniProt P20309); assay: M3 receptor radioligand binding assay; conditions: human M3 receptor membranes, [N-methyl-3H] scopolamine methyl chloride; Ki from IC50 by Cheng and Prusoff; read-out: M3 binding affinity (Ki class)
# T2 construct: purchased Perkin Elmer
# T2 sequence (P20309 whole entry): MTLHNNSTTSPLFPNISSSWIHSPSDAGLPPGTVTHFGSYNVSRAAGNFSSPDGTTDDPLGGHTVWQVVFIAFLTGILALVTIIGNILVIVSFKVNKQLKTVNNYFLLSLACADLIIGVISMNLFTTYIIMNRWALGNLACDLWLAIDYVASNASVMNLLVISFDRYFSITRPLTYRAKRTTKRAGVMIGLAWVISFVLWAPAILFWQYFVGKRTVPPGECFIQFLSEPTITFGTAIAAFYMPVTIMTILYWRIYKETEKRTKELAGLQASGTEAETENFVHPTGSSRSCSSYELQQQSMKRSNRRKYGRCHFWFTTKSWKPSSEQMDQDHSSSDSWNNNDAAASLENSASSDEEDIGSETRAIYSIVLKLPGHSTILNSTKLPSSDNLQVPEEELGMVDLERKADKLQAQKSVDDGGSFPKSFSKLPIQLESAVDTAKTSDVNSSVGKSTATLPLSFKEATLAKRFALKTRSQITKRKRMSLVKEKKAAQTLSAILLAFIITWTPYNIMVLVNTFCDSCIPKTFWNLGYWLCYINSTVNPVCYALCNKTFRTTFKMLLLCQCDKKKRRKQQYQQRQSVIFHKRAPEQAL
# Description: Example. M3 Receptor Radioligand Binding Assay
# The assay was carried out in 96-well polypropylene plates in a volume of 250 ul. […] The final assay concentration of DMSO was 0.5% (v/v). The plates were sealed and incubated for 2 hours at room temperature on an orbital shaker (slow speed). Membranes were harvested onto 96-well unifilter GF/C filter plates pre-treated with 0.5% polyethyleneimine (v/v), using a filter manifold, washed four times with 200 μl of assay buffer. The plates were dried before addition of 50 μl of microscint-0, sealed then read in a Trilux Microbeta scintillation counter. IC50 values are determined from competition curves using a non-linear curve fitting program. Ki values were calculated from IC50 values by the Cheng and Prusoff equation.
SMILES,Ki (Human β2 adrenoceptor) [nM],Ki (Human M3 receptor) [nM]
"Cc1cccc2c1CCC2(NC(=O)c1cccc(OCCCCCNC[C@H](O)c2ccc(O)c3[nH]c(=O)ccc23)c1)C(=O)O[C@H]1CN2CCC1CC2 (single isomer, unassigned; diastereoisomer 1) [Compound 5A]",1 to 10,1 to 10
"O=C(NC1(C(=O)OCC2CCN(Cc3ccccc3)CC2)CCc2ccccc21)c1cccc(OCCCCCCNC[C@H](O)c2ccc(O)c3[nH]c(=O)ccc23)c1 (stereo partly drawn) [Compound 9, (1-benzylpiperidin-4-yl)methyl 1-(3-((6-(((R)-2-hydroxy-2-(8-hydroxy-2-oxo-1,2-dihydroquinolin-5-yl)ethyl)amino)hexyl)oxy)benzamido)-2,3-dihydro-1H-indene-1-carboxylate]",> 10,< 1
"Cc1cccc2c1CCC2(NCc1cccc(C(=O)NCCCCNC[C@H](O)c2ccc(O)c3[nH]c(=O)ccc23)c1)C(=O)O[C@H]1CN2CCC1CC2 (stereo partly drawn) [Compound 5, (R)-quinuclidin-3-yl 1-((3-((4-(((R)-2-hydroxy-2-(8-hydroxy-2-oxo-1,2-dihydroquinolin-5-yl)ethyl)amino)butyl)carbamoyl)benzyl)amino)-4-methyl-2,3-dihydro-1H-indene-1-carboxylate]",< 1,< 1
"O=C(NCCCCNC[C@H](O)c1ccc(O)c2[nH]c(=O)ccc12)c1ccc(CNC2(C(=O)OCC3CCN(Cc4ccccc4)CC3)CCc3ccccc32)s1 (single isomer, unassigned; stereoisomer 1) [Compound 22]",1 to 10,< 1
"O=C(NC1(C(=O)OCC2CCN(Cc3cccc(O)c3)CC2)CCc2ccccc21)c1cccc(OCCCCCCNC[C@H](O)c2ccc(O)c3[nH]c(=O)ccc23)c1 (stereo partly drawn) [Compound 11, (1-(3-hydroxybenzyl)piperidin-4-yl)methyl 1-(3-((6-(((R)-2-hydroxy-2-(8-hydroxy-2-oxo-1,2-dihydroquinolin-5-yl)ethyl)amino)hexyl)oxy)benzamido)-2,3-dihydro-1H-indene-1-carboxylate]",> 10,1 to 10
"O=C(NCCCCNC[C@H](O)c1ccc(O)c2[nH]c(=O)ccc12)c1ccc(CNC2(C(=O)OCC3CCN(Cc4cccc(O)c4)CC3)CCc3ccccc32)s1 (stereo partly drawn) [Compound 15, (1-(3-hydroxybenzyl)piperidin-4-yl)methyl 1-(((5-((4-(((R)-2-hydroxy-2-(8-hydroxy-2-oxo-1,2-dihydroquinolin-5-yl)ethyl)amino)butyl)carbamoyl)thiophen-2-yl)methyl)amino)-2,3-dihydro-1H-indene-1-carboxylate]",1 to 10,< 1
"O=C(NCCCCNC[C@H](O)c1ccc(O)c2[nH]c(=O)ccc12)c1ccc(CNC2(C(=O)OC3CCN(Cc4ccccc4)CC3)CCc3ccccc32)s1 (single isomer, unassigned; stereoisomer 2) [Compound 27]",> 10,< 1
"O=C(NC1(C(=O)O[C@H]2CN3CCC2CC3)CCc2ccccc21)c1cccc(OCCCCNC[C@H](O)c2ccc(O)c3[nH]c(=O)ccc23)c1 (stereo partly drawn) [Compound 6, (R)-quinuclidin-3-yl 1-(3-(4-(((R)-2-hydroxy-2-(8-hydroxy-2-oxo-1,2-dihydroquinolin-5-yl)ethyl)amino)butoxy)benzamido)-2,3-dihydro-1H-indene-1-carboxylate]",1 to 10,< 1
"O=C(NC1(C(=O)O[C@H]2CN3CCC2CC3)CCc2ccccc21)c1ccc(OCc2ccc(CNC[C@H](O)c3ccc(O)c4[nH]c(=O)ccc34)cc2)cc1 (stereo partly drawn) [Compound 19, (R)-quinuclidin-3-yl 1-(4-((4-((((R)-2-hydroxy-2-(8-hydroxy-2-oxo-1,2-dihydroquinolin-5-yl)ethyl)amino)methyl)benzyl)oxy)benzamido)-2,3-dihydro-1H-indene-1-carboxylate]",> 10,1 to 10
"O=C(NC1(C(=O)OCC2CCN(Cc3ccco3)CC2)CCc2ccccc21)c1cccc(OCCCCCCNC[C@H](O)c2ccc(O)c3[nH]c(=O)ccc23)c1 (stereo partly drawn) [Compound 10, (1-(furan-2-ylmethyl)piperidin-4-yl)methyl 1-(3-((6-(((R)-2-hydroxy-2-(8-hydroxy-2-oxo-1,2-dihydroquinolin-5-yl)ethyl)amino)hexyl)oxy)benzamido)-2,3-dihydro-1H-indene-1-carboxylate]",> 10,1 to 10
"O=C(NCCCCNC[C@H](O)c1ccc(O)c2[nH]c(=O)ccc12)c1ccc(CNC2(C(=O)OCC3CCN(Cc4ccccc4)CC3)CCc3ccccc32)s1 (single isomer, unassigned; stereoisomer 2) [Compound 23]",1 to 10,< 1
"CC(C)N1CCC(COC(=O)C2(NC(=O)c3cccc(OCCCCCCNC[C@H](O)c4ccc(O)c5[nH]c(=O)ccc45)c3)CCc3ccccc32)CC1 (stereo partly drawn) [Compound 7, (1-isopropylpiperidin-4-yl)methyl 1-(3-((6-(((R)-2-hydroxy-2-(8-hydroxy-2-oxo-1,2-dihydroquinolin-5-yl)ethyl)amino)hexyl)oxy)benzamido)-2,3-dihydro-1H-indene-1-carboxylate]",> 10,< 1
"O=C(NCCCCNC[C@H](O)c1ccc(O)c2[nH]c(=O)ccc12)c1ccc(CNC2(C(=O)O[C@H]3CN4CCC3CC4)CCc3ccccc32)s1 (stereo partly drawn) [Compound 4, (R)-quinuclidin-3-yl 1-(((5-((4-(((R)-2-hydroxy-2-(8-hydroxy-2-oxo-1,2-dihydroquinolin-5-yl)ethyl)amino)butyl)carbamoyl)thiophen-2-yl)methyl)amino)-2,3-dihydro-1H-indene-1-carboxylate]",< 1,< 1
"O=C(NCCCCNC[C@H](O)c1ccc(O)c2[nH]c(=O)ccc12)c1ccc(CNC2(C(=O)OCC3CCN(Cc4cccs4)CC3)CCc3ccccc32)s1 (stereo partly drawn) [Compound 17, (1-(thiophen-2-ylmethyl)piperidin-4-yl)methyl 1-(((5-((4-(((R)-2-hydroxy-2-(8-hydroxy-2-oxo-1,2-dihydroquinolin-5-yl)ethyl)amino)butyl)carbamoyl)thiophen-2-yl)methyl)amino)-2,3-dihydro-1H-indene-1-carboxylate]",> 10,< 1
"O=C(NC1(C(=O)O[C@H]2CN3CCC2CC3)Cc2ccccc2C1)c1cccc(OCCCCCNC[C@H](O)c2ccc(O)c3[nH]c(=O)ccc23)c1 [Compound 13, (R)-quinuclidin-3-yl 2-(3-((5-(((R)-2-hydroxy-2-(8-hydroxy-2-oxo-1,2-dihydroquinolin-5-yl)ethyl)amino)pentyl)oxy)benzamido)-2,3-dihydro-1H-indene-2-carboxylate]",1 to 10,< 1
"O=C(Cc1ccc(CC(=O)NC2(C(=O)O[C@H]3CN4CCC3CC4)CCc3ccccc32)cc1)Nc1ccc(CNC[C@H](O)c2ccc(O)c3[nH]c(=O)ccc23)cc1 (stereo partly drawn) [Compound 18, (R)-quinuclidin-3-yl 1-(2-(4-(2-((4-((((R)-2-hydroxy-2-(8-hydroxy-2-oxo-1,2-dihydroquinolin-5-yl)ethyl)amino)methyl)phenyl)amino)-2-oxoethyl)phenyl)acetamido)-2,3-dihydro-1H-indene-1-carboxylate]",> 10,1 to 10
"O=C(NCCCCNC[C@H](O)c1ccc(O)c2[nH]c(=O)ccc12)c1ccc(CNC2(C(=O)OCC3CCN(Cc4ccccc4)CC3)CCc3ccccc32)s1 (stereo partly drawn) [Compound 16, (1-benzylpiperidin-4-yl)methyl 1-(((5-((4-(((R)-2-hydroxy-2-(8-hydroxy-2-oxo-1,2-dihydroquinolin-5-yl)ethyl)amino)butyl)carbamoyl)thiophen-2-yl)methyl)amino)-2,3-dihydro-1H-indene-1-carboxylate]",1 to 10,< 1
"O=C(NCCCCNC[C@H](O)c1ccc(O)c2[nH]c(=O)ccc12)c1ccc(CNC2(C(=O)O[C@@H]3CCCN(Cc4ccccc4)C3)CCc3ccccc32)s1 (single isomer, unassigned; stereoisomer 1) [Compound 25]",> 10,< 1
"O=C(NCCCCNC[C@H](O)c1ccc(O)c2[nH]c(=O)ccc12)c1ccc(CNC2(C(=O)O[C@@H]3CCN(Cc4ccccc4)C3)CCc3ccccc32)s1 (single isomer, unassigned; stereoisomer 2) [Compound 28]",1 to 10,< 1
"Cc1cccc2c1CCC2(NC(=O)c1cccc(OCCCCCNC[C@H](O)c2ccc(O)c3[nH]c(=O)ccc23)c1)C(=O)O[C@H]1CN2CCC1CC2 (single isomer, unassigned; diastereoisomer 2) [Compound 5B]",< 1,< 1
"O=C(NCCCCNC[C@H](O)c1ccc(O)c2[nH]c(=O)ccc12)c1cccc(C(=O)NC2(C(=O)O[C@H]3CN4CCC3CC4)CCc3ccccc32)c1 (stereo partly drawn) [Compound 8, (R)-quinuclidin-3-yl 1-(3-((4-(((R)-2-hydroxy-2-(8-hydroxy-2-oxo-1,2-dihydroquinolin-5-yl)ethyl)amino)butyl)carbamoyl)benzamido)-2,3-dihydro-1H-indene-1-carboxylate]",> 10,1 to 10
